Broadly, the IC50 is the midpoint of a concentration-inhibition curve.

These results are taken from patent publication US20070254288A1, “Diagnostic methods for pain sensitivity and chronicity and for tetrahydrobiopterin-related disorders” (The General Hospital Corporation, priority 2005, published 2007).

One data set has as its system GCH1. Kind of data set: LPS induction of GCH1 in cells of haplotype carriers and non-carriers. It is filed as cell-based, human. To be noted: cells of individuals with versus without the pain protective haplotype.
The subject of data set [1] is Sprague Dawley rats. Briefly: Formalin test: flinching and cFos immunoreactive dorsal horn neurons. Format: in vivo, rat. The method, then:
(§1) Adult male Sprague Dawley rats (150-200 g, Charles River Laboratories) were used. For the SNI model two branches of the sciatic nerve, the common peroneal and the tibial nerve, were ligated and sectioned distally. For the CCI model the sciatic nerve was constricted with three Dexon 4/0 ligatures. For the SNL model, the L5 spinal nerve was tightly ligated. All surgical procedures were under isoflurane anesthesia. For the Formalin test 50 μl of 5% formaldehyde solution were injected into a hindpaw and flinches were counted per minute up to 60 min. Paw inflammation was induced with 50 μl complete Freund's adjuvant (CFA) injected into a hindpaw. Nociceptive analysis was done blinded, and animals were fully habituated to the room and test cages. Mechanical allodynia was assessed with graded strength monofilament von Frey hairs (0.0174-20.9 gram, log scaled), cold allodynia with the acetone test and heat hyperalgesia with the Hargreaves test. Drugs (Sigma) were injected intraperitoneally or intrathecally through a spinal catheter, osmotic pumps were used for infusion. Control animals received vehicle. L4/5 DRG and spinal cord tissue was processed for QRT-PCR, Western blotting, in situ hybridization and immunofluorescence studies.
(§2) For the Formalin test 50 μl of 5% formaldehyde solution were injected into one hindpaw and flinches were counted per minute up to 60 min. […]

For data set [2], the system named is Sprague Dawley rats. Briefly: Chronic constriction injury (CCI) model: mechanical and cold allodynia. Format: in vivo, rat. To be noted: 180 mg/kg i.p. As for the experimental part:
as §1, with “Nociceptive analysis was done blinded, and animals were fully habituated to the room and test cages.” left out, “Drugs (Sigma) were injected intraperitoneally or intrathecally through a spinal catheter, osmotic pumps were used for infusion. Control animals received vehicle. L4/5 DRG and spinal cord tissue was processed for QRT-PCR, Western blotting, in situ hybridization and immunofluorescence studies.” left out
(§3) Animals were fully habituated and experiments performed blinded. Threshold for eliciting a withdrawal reflex to graded strength monofilament von Frey hairs (0.0174-20.9 g) was measured to assess mechanical allodynia. To measure cold allodynia, a drop of acetone was applied to the plantar hindpaw, and the time the animal spent licking, shaking or lifting the paw was measured (Tegeder et al., J Neurosci 24:1637-1645 (2004)). Paw withdrawal latency to radiant heat (lamp with 8 V, 50 W) assessed heat evoked pain (Ugo Basile). […]

A short description of data set [3]: Plasma and CSF concentrations of DAHP (LC/MS-MS). Format: in vivo, rat. To be noted: after i.p. injection of 180 mg/kg; compared with IC50 range 100-300 μM. As for the experimental part: Concentrations of DAHP were determined LC/MS-MS on a tandem quadrupole mass spectrometer (PE Sciex API 3000; Applied Biosystems). Extraction was by acetonitrile precipitation; chromatographic separation was performed on a Nucleosil C18 Nautilus column (125×4 mm I.D., 5 μm particle size, 100 Å pore size). Mobile phase was acetonitrile:water (80:20%, v/v), and formic acid (0.1%, v/v). Flow rate was 0.2 ml/min, and injection volume was 5 μl. DAHP eluted at 4.7 min. Mass spectrometer in positive ion mode, 5200 V, 400° C., auxiliary gas flow 6 l/min. The mass transition for the MRM was m/z 127→60. Quantification with Analyst software V1.1 (Applied Biosystems). Coefficient of variation over the calibration range of 10-4000 ng/ml <5%.

The test system of data set [4] is Sprague Dawley rats. Briefly: Nociceptive thresholds in naïve animals (von Frey, radiant heat). It is filed as in vivo, rat. To be noted: naïve animals, 180 mg/kg i.p.; 180 mg/kg. The method, then: (§4) Animals were fully habituated and experiments performed blinded. Threshold for eliciting a withdrawal reflex to graded strength monofilament von Frey hairs (0.0174-20.9 g) was measured to assess mechanical allodynia. To measure cold allodynia, a drop of acetone was applied to the plantar hindpaw, and the time the animal spent licking, shaking or lifting the paw was measured (Tegeder et al., J Neurosci 24:1637-1645 (2004)). Paw withdrawal latency to radiant heat (lamp with 8 V, 50 W) assessed heat evoked pain (Ugo Basile).
(§5) DAHP was dissolved in 1:1 polyethylene glycol (PEG400) and 1×PBS, pH 7.4 (15 mg/ml) and administered i.p. or intrathecally (250 μg/kg/h; 5 μl/h). For all i.t. injections/infusions a spinal catheter (Recathco) was used and implanted as described (Kunz et al., Pain 110:409-418 (2004)). Infusions with an osmotic pump (Alzet). 6R-BH4 in ACSF was injected i.t. (10 μg, single 10 μl injection). N-acetyl-serotonin in 1×PBS pH 7.4 containing 3% ethanol was delivered by i.t. infusion (100 μg/kg/h; 5 μl/h). Control animals received the appropriate vehicle. All drugs from Sigma-Aldrich.

Data set [5] deals with Sprague Dawley rats. Briefly: CFA-induced paw inflammation: thermal hyperalgesia (Hargreaves). Format: in vivo, rat. As for the experimental part: as §1, with “Drugs (Sigma) were injected intraperitoneally or intrathecally through a spinal catheter, osmotic pumps were used for infusion. Control animals received vehicle. L4/5 DRG and spinal cord tissue was processed for QRT-PCR, Western blotting, in situ hybridization and immunofluorescence studies.” left out
as §2, §4
Data are means ±SEM. […] Areas under the “effect versus time” curves (AUC) were calculated using the linear trapezoidal rule and compared with Student's t-test or univariate analysis of variance (ANOVA) with subsequent t-tests employing a Bonferroni alpha-correction for multiple comparisons. All other data were analyzed with univariate ANOVA or ANOVA for repeated measurements. […]

A short description of data set [6]: Observation of general well-being, body weight, gait, activity. It is filed as in vivo, rat. To be noted: acute single or daily treatment, 180 mg/kg i.p.; 180 mg/kg.
In data set [7] the test system is Sprague Dawley rats. Briefly: Spared nerve injury (SNI) model: mechanical (von Frey) and cold (acetone) allodynia. It is filed as in vivo, rat. The method, then:
as §1, §4, §5
Data are means ±SEM. The number of animals per group was 9-12. Areas under the “effect versus time” curves (AUC) were calculated using the linear trapezoidal rule and compared with Student's t-test or univariate analysis of variance (ANOVA) with subsequent t-tests employing a Bonferroni alpha-correction for multiple comparisons. All other data were analyzed with univariate ANOVA or ANOVA for repeated measurements. P at 0.05 for all tests.

Another data set concerns nitric oxide production. Kind of data set: Nitric oxide production in L4/5 DRGs after SNI. It is filed as in vivo, rat. To be noted: 7 d after SNI, once daily treatment.
The next data set deals with GTP cyclohydrolase. To be noted: determined in vitro (Kolinsky and Gross 2004; Xie et al. 1998); read-out: IC50 range for GTP cyclohydrolase inhibition; cited from earlier work.
Data set [8] has as its system Sprague Dawley rats. Briefly: Spinal nerve ligation (SNL) model: mechanical and cold allodynia. Format: in vivo, rat. To be noted: 180 mg/kg i.p. The method, then: as §1, with “Nociceptive analysis was done blinded, and animals were fully habituated to the room and test cages.” left out, “Drugs (Sigma) were injected intraperitoneally or intrathecally through a spinal catheter, osmotic pumps were used for infusion. Control animals received vehicle. L4/5 DRG and spinal cord tissue was processed for QRT-PCR, Western blotting, in situ hybridization and immunofluorescence studies.” left out
as §3

A further data set relates to serotonin. Briefly: Serotonin concentrations in spinal cord and brain stem. It is filed as in vivo, rat. To be noted: data not shown.
Data set [9] has as its system BH4 synthesis (GTP cyclohydrolase activity). Kind of data set: Tissue concentrations of neopterin and biopterin in L4/5 DRGs (LC/MS-MS). To be noted: single 180 mg/kg i.p. 3 hours before dissection, 180 mg/kg. It is filed as in vivo, rat. The method, then:
Homogenized tissue was oxidized with iodine, and pteridines were extracted on Oasis MCX cartridges. Concentrations of total biopterin, neopterin, and the internal standard rhamnopterin were determined by LC/MS-MS. LC analysis under gradient conditions on a Nucleosil C8 column; MS-MS analyses on an API 4000 Q TRAP triple quadrupole mass spectrometer. Precursor-to-product ion transitions of m/z 236→192 for biopterin, m/z 252→192 for neopterin, m/z 265→192 for rhamnopterin were used for the MRM. Linearity from 0.1-50 ng/ml. The coefficient of correlation for all measured sequences was at least 0.99. The intra-day and inter-day variability was <10%.

The test system of a further data set is Rats. Kind of data set: Forced Swim Test. It is filed as in vivo, rat. To be noted: 180 mg/kg i.p., 3 injections. As for the experimental part: FIGS. 8A-8D show the effects of DAHP injection. […] DAHP (250 μg/kg/h) was delivered to the lumbar spinal cord via a chronically implanted spinal catheter connected to an osmotic Alzet pump. Infusion started right after SNI surgery and continued 14 days, flow rate 5 μl/h (n=8, p<0.05). […] Effect versus time AUCs were used for statistical comparisons. […] Rats (n=7 per condition) received 3 separate injections of DAHP (180 mg/kg, i.p.), at 1 hr, 19 hrs, and 23 hrs after the first exposure to forced swimming. This commonly used treatment regimen identifies in rats agents with antidepressant or pro-depressant effects in humans (Mague et al., J Pharmacol Exp Ther 305:323-330 (2003)). Retest sessions (forced swim for 300 sec) occurred 24 hr after the first swim exposure and were videotaped from the side of the water cylinders and scored by raters unaware of the treatment condition. Rats were rated at 5 sec intervals throughout the duration of the retest session; at each 5 sec interval the predominant behavior was assigned to one of four categories: immobility, swimming, climbing, or diving. The sum of these scores are shown for each modality. For all panels, error SEM.

Setting [10] is: repeated daily injections, measured two-three hours after injection.

“Also recorded” adds a separate entry of the source.

For lipopolysaccharide [LPS], the GCH1 induction result with GCH1 is listed as “induced GCH1 to a lesser extent”.
Take `Nc1cc(O)nc(N)n1` [DAHP, 2,4-diamino-6-hydroxypyrimidine]: in the data set with Sprague Dawley rats [1] (180 mg/kg i.p. before formalin, first and second phases), the formalin-induced flinching behavior entry was “significantly reduced formalin-induced flinching behavior in both phases; also recorded: significantly reduces the flinching behavior in the first and second phases”. Besides, the “number of cFos immunoreactive neurons in ipsilateral dorsal horn” value with Sprague Dawley rats [1] (180 mg/kg i.p., two hours after formalin injection) was “reduced number of cFOS immunoreactive neurons; also recorded: significant reduction in the number of cFos immunoreactive neurons”. The “mechanical and cold allodynia” value in the data set with Sprague Dawley rats [2] was “analgesic effects; also recorded: dose-dependent reductions in mechanical and cold allodynia”. In addition, the “plasma and CSF concentrations” value in [3] is on record as “within the IC50 range”. Moreover, the “mechanical threshold and radiant heat paw withdrawal latency” value in the data set with Sprague Dawley rats [4] is “failed to modify mechanical and thermal threshold; also recorded: did not change the mechanical threshold for paw withdrawal or radiant heat evoked paw withdrawal latency”. The thermal hyperalgesia result in the data set with Sprague Dawley rats [5] (180 mg/kg i.p., before CFA and 24 hours after CFA) is reported as “significantly reduced thermal hyperalgesia; also recorded: reduce CFA-evoked heat hyperalgesia”. Also, in the data set with Sprague Dawley rats [5] (single intrathecal injection of 1 mg/kg, 1 mg/kg), the thermal hyperalgesia entry is “reduced thermal hyperalgesia”. Also, the “general well-being, body weight, gait, activity” value in [6] was “No deleterious effect; also recorded: had no effect”. Moreover, the “mechanical and cold pain hypersensitivity, established” value in the data set with Sprague Dawley rats [7] (180 mg/kg/d i.p. starting 17 days after nerve injury) is “produced a significant reduction of mechanical and cold pain hypersensitivity; also recorded: decreases pain hypersensitivity”. Further, the “relative efficacy, extent of return to pre-surgery baseline values” in the data set with Sprague Dawley rats [7] (SNI model, versus comparators measured earlier (Decosterd et al. 2004)) was “exceeds that of non-sedating doses of morphine, gabapentin, amitriptyline, and carbamazepine”. Further, the “analgesia on repeated daily administration” value in the data set with Sprague Dawley rats [7] (SNI, repeated daily administration) is listed as “continues to produce analgesia without obvious loss of activity”. Moreover, the “dose dependence of effect on mechanical and cold allodynia” value with Sprague Dawley rats [7] (SNI, repeated daily i.p. injections) is “dose dependent efficacy; also recorded: dose-dependent reductions in mechanical and cold allodynia”. For the same compound, the “mechanical and cold allodynia” value with Sprague Dawley rats [7] (continuous intrathecal infusion 250 μg/kg/h, 14 days from SNI surgery) is “reduces mechanical and cold allodynia”. Also, in the data set with Sprague Dawley rats [7] (setting [10]), the “linear relationship between dose and effect (R), cold allodynia” value amounted to 0.754; the “linear relationship between dose and effect (R), mechanical allodynia” value was 0.709. In addition, in the data set with Sprague Dawley rats [7] (single dose 180 mg/kg i.p. four days after SNI), the “time to reversal of mechanical and cold pain hypersensitivity” value is ≤ 60 min. For the same compound, in the data set on Sprague Dawley rats [7] (single dose 180 mg/kg i.p. four days after SNI, 180 mg/kg), the “mechanical (von Frey) and cold allodynia” value was “significantly reduced mechanical (von Frey) and cold allodynia; also recorded: reverses mechanical and cold pain hypersensitivity”. The “nitric oxide levels in L4/5 DRGs” value in the data set on nitric oxide production is “normalization of NO levels; also recorded: prevented by DAHP treatment”. Also, on GTP cyclohydrolase, the 50% inhibitory concentration (IC50) was 100 to 300 µM. Besides, the “mechanical and cold allodynia” value in the data set on Sprague Dawley rats [8] was “analgesic effects; also recorded: dose-dependent reductions in mechanical and cold allodynia”. Besides, in the data set with serotonin, the “serotonin concentrations in spinal cord and brain stem” value is “did not, however, significantly reduce serotonin concentrations”. For the same compound, in data set [9] (24 h after CFA), the “biopterin levels in ipsilateral L4/5 DRGs” value was “reduced neopterin and biopterin; also recorded: significantly reduces elevated biopterin levels”; the “neopterin levels in ipsilateral L4/5 DRGs” value is “reduced neopterin and biopterin; also recorded: completely prevents the inflammation-evoked increase of neopterin”. In [9] (7 days after SNI), the “biopterin levels in L4/5 DRGs” value is “reduced neopterin and biopterin; also recorded: significantly reduces biopterin levels”; the “neopterin levels in L4/5 DRGs” value was “reduced neopterin and biopterin; also recorded: completely prevents the nerve injury induced increases in neopterin”. Further, the “performance in the forced swim test” value in the data set with Rats is “had no effect”.
